Data from publication PMC6716773 (Journal of Medicinal Chemistry, 2018).
Blank lines part the entries; values can stand above or below the compound they belong to.

Legend:
human A2A receptors = human A2A receptors (Homo sapiens, UniProt P29274); experiment: Functional cAMP accumulation assay with NECA; type: cell-based; settings: response to agonist NECA in presence of compound; CHO cells
[1] = biological target: A2A adenosine receptor (A2AAR) (Homo sapiens, UniProt P29274); experiment: A2AAR competition binding; settings: for better A2AAR binding affinity than compound 1: relative to compound 1
[2] = tested on: differentiated dopaminergic neuronal-like SH-SY5Y cells; experiment: Cell viability; type: cell-based, human; settings: 20 µM 6-OHDA, 24 h; resazurin
A2AAR = settings: read-out: A2AAR Ki; cited from earlier work
MAO-B = settings: read-out: MAO-B IC50; cited from earlier work
human recombinant MAO-B = biological target: T1, human recombinant MAO-B (Homo sapiens, UniProt P27338); experiment: MAO-B enzyme assay; type: biochemical; settings: Triton X-100, 0.01%; colloidal aggregation control
T1 sequence (P27338 1-520): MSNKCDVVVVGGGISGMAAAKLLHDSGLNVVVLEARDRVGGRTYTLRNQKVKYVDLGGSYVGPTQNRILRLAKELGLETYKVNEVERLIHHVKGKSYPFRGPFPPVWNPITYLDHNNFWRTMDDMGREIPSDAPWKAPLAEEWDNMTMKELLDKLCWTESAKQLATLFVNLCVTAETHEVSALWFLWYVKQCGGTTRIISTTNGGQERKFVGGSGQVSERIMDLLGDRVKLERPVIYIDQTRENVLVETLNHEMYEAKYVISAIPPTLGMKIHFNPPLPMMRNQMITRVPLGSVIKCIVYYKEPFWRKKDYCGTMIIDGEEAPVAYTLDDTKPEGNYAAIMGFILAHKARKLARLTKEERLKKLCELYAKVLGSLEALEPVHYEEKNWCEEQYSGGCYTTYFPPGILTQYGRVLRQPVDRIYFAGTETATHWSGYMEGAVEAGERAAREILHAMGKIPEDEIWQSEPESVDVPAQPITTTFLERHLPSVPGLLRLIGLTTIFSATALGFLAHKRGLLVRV

A2A adenosine receptor (A2AAR), sequence (P29274 whole entry): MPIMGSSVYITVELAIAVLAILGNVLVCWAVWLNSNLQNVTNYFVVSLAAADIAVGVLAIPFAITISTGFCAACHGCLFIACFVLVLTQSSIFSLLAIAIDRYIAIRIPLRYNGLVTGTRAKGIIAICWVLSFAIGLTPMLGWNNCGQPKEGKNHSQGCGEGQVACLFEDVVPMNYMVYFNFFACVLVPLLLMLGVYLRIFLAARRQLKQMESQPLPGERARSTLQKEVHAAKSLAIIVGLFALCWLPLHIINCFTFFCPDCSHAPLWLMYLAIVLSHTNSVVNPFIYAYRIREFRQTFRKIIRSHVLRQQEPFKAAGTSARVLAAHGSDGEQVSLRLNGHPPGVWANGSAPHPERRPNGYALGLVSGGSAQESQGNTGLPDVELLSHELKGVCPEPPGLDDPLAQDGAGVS
human A2A receptors, sequence (P29274 whole entry): as above

activity at the A2AAR (in words) [1]: inactive
SMILES: Nc1nn(-c2ccccc2)nc1C(=O)O [Compound 3j]

change in MAO-B IC50 values in the presence of detergent (human recombinant MAO-B): no significant changes
SMILES: Cc1ccc(COC(=O)c2nn(-c3ccccc3)nc2N)cc1 [Compound 3a]

Further lines, the compound ahead of its results:

SMILES: O=C(Nc1nc2cccc(Cl)c2[nH]1)c1ccccc1 [Compound 1a]
efficacy at the A2AAR in cAMP accumulation assay (human A2A receptors): antagonists
better A2AAR binding affinity than compound 1 [1]: 27 fold

SMILES: COc1cccc(CO)c1 [Compound 3k]
activity at the A2AAR (in words) [1]: inactive

SMILES: COc1cccc(COC(=O)c2nn(-c3ccccc3)nc2N)c1 [Compound 3]
efficacy at the A2AAR in cAMP accumulation assay (human A2A receptors): antagonists

SMILES: NCCc1cc(O)c(O)cc1O [Compound 6-OHDA, 6-hydroxydopamine]
reduction in cell viability [2]: 37 ± 1.3%

SMILES: Cn1c(=O)c2c(nc(/C=C/c3cccc(Cl)c3)n2C)n(C)c1=O [CSC, 8-(3-chlorostyryl)caffeine]
Ki (A2AAR): 38 nM
IC50 (MAO-B): 18 nM

SMILES: COc1cccc2nc(NC(=O)c3ccccc3)[nH]c12 [Compound 1b]
better A2AAR binding affinity than compound 1 [1]: 5 fold

SMILES: O=C(Nc1nc2ccccc2[nH]1)c1ccccc1 [Compound 1]
change in MAO-B IC50 values in the presence of detergent (human recombinant MAO-B): no significant changes
